Assay [1] has as its target DAT (Rattus norvegicus, UniProt P23977). The assay is described as follows: DAT radioligand binding assay. Particulars: for pKi ± S.E.M. DAT [3H]WIN 35,428: mean ± S.E.M., 3 independent experiments.
Another assay addresses NET (Rattus norvegicus, UniProt Q63380). The assay is described as follows: NET radioligand binding assay.
A further assay addresses SERT (Rattus norvegicus, UniProt P31652). As to the kind of experiment: SERT radioligand binding assay. To be noted: for pKi ± S.E.M. SERT [3H]Citalopram: rat brain membranes (stem in methods), mean ± S.E.M., 3 independent experiments.
For the next assay, the target named is human DAT (hDAT) (Homo sapiens, UniProt Q01959). As to the kind of experiment: [3H]dopamine uptake inhibition in CAD cells transiently expressing hDAT. The class given is cell-based.
Another assay deals with EGFP-hDAT (Homo sapiens, UniProt Q01959). The assay is described as follows: TIRF microscopy of surface labeling of EGFP-hDAT-expressing CAD cells. The class given is cell-based. Particulars: 10 nM ligand, 10 min, rt; fixed cells.
Assay [2] deals with DAT. Particulars: read-out: DAT Ki; cited from earlier work.
[3] abbreviates: IC50 DAT [3H]DA, value in parentheses.
Where [4] appears, read: pIC50 ± S.E.M. DAT [3H]DA, 20 nM [3H]DA, 5 min, rt.
[5] abbreviates: read-out: Ki DAT [3H]WIN 35,428, rat striatum membranes, value in parentheses.

Where two headings read alike, the source gives them in different places.

DAT (Rattus norvegicus, UniProt P23977), sequence (P23977 whole entry): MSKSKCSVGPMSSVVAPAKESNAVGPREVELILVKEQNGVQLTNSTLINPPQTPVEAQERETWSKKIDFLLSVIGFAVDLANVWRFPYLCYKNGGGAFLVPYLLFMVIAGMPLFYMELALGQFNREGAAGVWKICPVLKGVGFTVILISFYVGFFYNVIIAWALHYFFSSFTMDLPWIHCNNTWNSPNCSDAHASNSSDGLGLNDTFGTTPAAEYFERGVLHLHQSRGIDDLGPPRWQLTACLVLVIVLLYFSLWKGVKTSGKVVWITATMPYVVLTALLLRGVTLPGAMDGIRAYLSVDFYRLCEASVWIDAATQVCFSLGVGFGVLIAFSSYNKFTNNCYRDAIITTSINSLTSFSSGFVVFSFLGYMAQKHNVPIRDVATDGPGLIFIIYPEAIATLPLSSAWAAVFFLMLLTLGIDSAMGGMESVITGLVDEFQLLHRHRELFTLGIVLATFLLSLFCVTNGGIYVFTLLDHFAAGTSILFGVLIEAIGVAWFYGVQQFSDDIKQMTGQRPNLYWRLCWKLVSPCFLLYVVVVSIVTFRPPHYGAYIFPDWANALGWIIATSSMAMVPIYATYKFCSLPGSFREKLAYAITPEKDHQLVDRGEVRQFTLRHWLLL
SERT, sequence (P31652 whole entry): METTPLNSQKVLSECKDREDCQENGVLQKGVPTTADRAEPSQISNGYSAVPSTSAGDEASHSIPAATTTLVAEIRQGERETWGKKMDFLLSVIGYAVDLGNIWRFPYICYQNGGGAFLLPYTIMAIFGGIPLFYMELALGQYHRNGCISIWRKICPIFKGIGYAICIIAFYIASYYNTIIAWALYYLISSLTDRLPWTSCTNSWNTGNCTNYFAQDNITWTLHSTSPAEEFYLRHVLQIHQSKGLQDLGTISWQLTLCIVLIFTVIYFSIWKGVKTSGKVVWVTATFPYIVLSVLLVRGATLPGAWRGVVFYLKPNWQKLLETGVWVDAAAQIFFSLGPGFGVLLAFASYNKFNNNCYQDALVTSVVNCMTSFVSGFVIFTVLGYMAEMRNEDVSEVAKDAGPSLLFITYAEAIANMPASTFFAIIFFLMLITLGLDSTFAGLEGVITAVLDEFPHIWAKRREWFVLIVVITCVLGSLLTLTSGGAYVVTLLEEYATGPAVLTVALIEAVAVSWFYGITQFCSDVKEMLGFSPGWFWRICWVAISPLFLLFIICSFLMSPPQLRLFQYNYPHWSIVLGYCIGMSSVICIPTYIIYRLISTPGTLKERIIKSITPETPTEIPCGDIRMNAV
NET, sequence (Q63380 1-617): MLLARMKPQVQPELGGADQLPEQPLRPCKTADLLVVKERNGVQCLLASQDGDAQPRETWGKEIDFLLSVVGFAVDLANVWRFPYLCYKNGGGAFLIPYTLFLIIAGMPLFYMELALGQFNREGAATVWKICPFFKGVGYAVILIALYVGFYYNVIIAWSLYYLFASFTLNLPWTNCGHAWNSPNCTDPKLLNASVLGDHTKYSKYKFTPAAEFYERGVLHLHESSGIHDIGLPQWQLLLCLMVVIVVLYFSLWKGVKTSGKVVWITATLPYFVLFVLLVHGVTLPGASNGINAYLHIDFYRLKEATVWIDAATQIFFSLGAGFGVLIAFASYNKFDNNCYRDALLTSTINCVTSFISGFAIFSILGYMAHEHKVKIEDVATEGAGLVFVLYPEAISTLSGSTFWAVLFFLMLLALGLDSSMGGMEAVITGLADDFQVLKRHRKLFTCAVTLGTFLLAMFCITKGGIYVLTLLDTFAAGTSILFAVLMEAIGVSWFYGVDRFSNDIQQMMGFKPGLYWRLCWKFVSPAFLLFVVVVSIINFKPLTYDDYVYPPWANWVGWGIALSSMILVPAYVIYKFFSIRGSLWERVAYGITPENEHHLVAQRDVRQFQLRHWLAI
EGFP-hDAT, sequence (Q01959 whole entry): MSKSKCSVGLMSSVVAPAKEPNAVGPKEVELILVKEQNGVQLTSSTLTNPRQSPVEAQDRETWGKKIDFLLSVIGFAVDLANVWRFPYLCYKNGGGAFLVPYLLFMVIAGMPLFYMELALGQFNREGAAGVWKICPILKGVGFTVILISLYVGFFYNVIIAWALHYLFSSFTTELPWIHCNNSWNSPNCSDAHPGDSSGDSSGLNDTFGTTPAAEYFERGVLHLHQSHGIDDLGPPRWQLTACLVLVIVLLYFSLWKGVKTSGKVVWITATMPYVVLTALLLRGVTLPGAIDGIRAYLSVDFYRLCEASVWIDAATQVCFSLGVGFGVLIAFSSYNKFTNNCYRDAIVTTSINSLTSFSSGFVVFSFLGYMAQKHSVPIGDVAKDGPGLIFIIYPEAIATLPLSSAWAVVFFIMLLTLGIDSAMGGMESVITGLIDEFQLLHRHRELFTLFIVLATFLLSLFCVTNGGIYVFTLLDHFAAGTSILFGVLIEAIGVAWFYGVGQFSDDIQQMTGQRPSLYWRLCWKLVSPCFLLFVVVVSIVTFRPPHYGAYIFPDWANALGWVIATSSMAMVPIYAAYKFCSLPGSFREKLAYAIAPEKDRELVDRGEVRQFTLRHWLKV
human DAT (hDAT), sequence (Q01959 whole entry): as above

A word on the Ki: it is a dissociation constant, usually derived from enzyme kinetics or from competition with a known ligand. By IC50 is commonly meant the concentration that inhibits the measured activity by half. In the case of `COC(=O)[C@H]1[C@@H](c2ccc(Cl)c(Cl)c2)C[C@@H]2CC[C@H]1N2CCN1CCN(CCCCNC(=O)c2ccc3c(c2)C2(OC3=O)c3ccc(N4CCC4)cc3[Si](C)(C)c3cc(N4CCC4)ccc32)CC1` [Compound 14, Methyl (1R,2S,3S,5S)-8-(2-(4-(4-(3,7-di(azetidin-1-yl)-5,5-dimethyl-3’-oxo-3’H,5H-spiro[dibenzo[b,e]siline-10,1’-isobenzofuran]-6’-carboxamido)butyl)piperazin-1-yl)ethyl)-3-(3,4-dichlorophenyl)-8-azabicyclo[3.2.1]octane-2-carboxylate], the Ki at DAT [1] is 38 nM; on NET it was 1200 nM; at SERT it was 38 nM. Besides, the figures for the half-inhibitory concentration (IC50) on human DAT (hDAT) (setting [3]) and against human DAT (hDAT) (setting [4]) were 160 nM and 158 nM, respectively. The “surface labeling of EGFP-hDAT-expressing CAD cells, TIRF microscopy (in words)” value (shortened to “surface labeling”) on EGFP-hDAT is listed as “the labeling was very punctate”.
With `CCN(CC)c1ccc2c(-c3ccc(S(=O)(=O)NCCCCCC(=O)NCCN4C5CCC4[C@@H](C(=O)OC)[C@@H](c4ccc(Cl)c(Cl)c4)C5)cc3S(=O)(=O)[O-])c3ccc(=[N+](CC)CC)cc-3oc2c1` (some centres unmarked) [Compound 2, reference compound], the “pKi ± S.E.M. DAT [3H]WIN 35,428” value on DAT [1] (rat striatum membranes) is reported as 7.79 ± 0.09. For the same molecule, the figures for the Ki on DAT [1] (setting [5]) and at DAT [2] were 16 nM and 18 nM, respectively. Besides, the “pKi ± S.E.M. SERT [3H]Citalopram” value at SERT was 7.80 ± 0.08.
For the molecule `COC(=O)[C@H]1[C@@H](c2ccc(Cl)c(Cl)c2)C[C@@H]2CC[C@H]1N2CCOCCOCCNC(=O)c1ccc(C(=O)[O-])c(-c2c3ccc(=[N+]4CCC4)cc-3oc3cc(N4CCC4)ccc23)c1` [Compound 3, 2-(3-(Azetidin-1-ium-1-ylidene)-6-(azetidin-1-yl)-3H-xanthen-9-yl)-4-((2-(2-(2-((1R,2S,3S,5S)-3-(3,4-dichlorophenyl)-2-(methoxycarbonyl)-8-azabicyclo[3.2.1]octan-8-yl)ethoxy)ethoxy)ethyl)carbamoyl)benzoate], the inhibition constant Ki was 6.03 nM at DAT [1], 225 nM on NET and 41.7 nM on SERT. The figures for the IC50 at human DAT (hDAT) (setting [3]) and against human DAT (hDAT) (setting [4]) were 28 nM and 28.2 nM, respectively. Also, the “surface labeling” value at EGFP-hDAT is “surface labeling was observed”.
As to `COC(=O)[C@H]1[C@@H](c2ccc(Cl)c(Cl)c2)C[C@@H]2CC[C@H]1N2CCOCCOCCNC(=O)c1ccc2c(c1)C1(OC2=O)c2ccc(N3CCC3)cc2[Si](C)(C)c2cc(N3CCC3)ccc21` [Compound 10, Methyl (1R,2S,3S,5S)-8-(2-(2-(2-(3,7-di(azetidin-1-yl)-5,5-dimethyl-3’-oxo-3’H,5H-spiro[dibenzo[b,e]siline-10,1’-isobenzofuran]-6’-carboxamido)ethoxy)ethoxy)ethyl)-3-(3,4-dichlorophenyl)-8-azabicyclo[3.2.1]octane-2-carboxylate], the Ki at DAT [1] was 112 nM; on NET, 468 nM; at SERT, 153 nM. Besides, the concentration for half-maximal inhibition (IC50) on human DAT (hDAT) (setting [3]) and on human DAT (hDAT) (setting [4]) was 1150 nM in each case.
As to `COC(=O)[C@H]1[C@@H](c2ccc(Cl)c(Cl)c2)C[C@@H]2CC[C@H]1N2CCOCCOCCOCCOCCOCCNC(=O)c1ccc2c(c1)C1(OC2=O)c2ccc(N3CCC3)cc2[Si](C)(C)c2cc(N3CCC3)ccc21` [Compound 4, Methyl (1R,2S,3S,5S)-8-(1-(3,7-di(azetidin-1-yl)-5,5-dimethyl-3’-oxo-3’H,5H-spiro[dibenzo[b,e]siline-10,1’-isobenzofuran]-6’-yl)-1-oxo-5,8,11,14,17-pentaoxa-2-azanonadecan-19-yl)-3-(3,4-dichlorophenyl)-8-azabicyclo[3.2.1]octane-2-carboxylate], the “pKi ± S.E.M. DAT [3H]WIN 35,428” value on DAT [1] (rat striatum membranes) was determined as 7.55 ± 0.03. For the same molecule, on DAT [1] (setting [5]), the inhibitory constant (Ki) is 28 nM. Besides, on SERT, the “pKi ± S.E.M. SERT [3H]Citalopram” value is 7.37 ± 0.05. In addition, the “pIC50 ± S.E.M. DAT [3H]DA” value against human DAT (hDAT) (20 nM [3H]DA, 5 min, rt) is recorded as 6.99 ± 0.15. For the same molecule, the “surface labeling” value on EGFP-hDAT was “surface labeling was observed”.
Consider `COC(=O)[C@H]1[C@@H](c2ccc(Cl)c(Cl)c2)C[C@@H]2CC[C@H]1N2C` [Compound 1, reference compound], for which the “pKi ± S.E.M. DAT [3H]WIN 35,428” value on DAT [1] (rat striatum membranes) is given as 9.10 ± 0.23. Besides, at DAT [1] (setting [5]), the Ki was 0.8 nM. For the same molecule, the “pKi ± S.E.M. SERT [3H]Citalopram” value at SERT came to 7.99 ± 0.20.
